Experimental data as given in patent publication EP4775577A1, “RAS INHIBITOR” (Tyligand Bioscience (Shanghai) Limited, priority 2023, dated 2025).

Legend:
[1] = tested on: KRAS G12D mutant AGS cells; test: Proliferation inhibition of AGS cells, CellTiter-Glo assay; type: cell-based, human; settings: Homo sapiens, AGS, 72 h, 3 days, CTG; read-out: AGS IC50/nM
Method in brief: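 AGS cells at 1500 cells/well in F12K + 10% FBS were exposed for 3 days at 37°C to nine 3-fold dilutions from 10 µM top concentration, in duplicate. Viability read by CellTiter-Glo luminescence; IC50 (nM) from dose-response-inhibition fitting.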

[2] = tested on: KRAS G12S mutant A549 cells; test: Proliferation inhibition of A549 cells, 3D CellTiter-Glo assay; type: cell-based; settings: Homo sapiens, A549, 120 h, read-out: A549 IC50/nM
Experimental: A549 cells (Nanjing Kebai Biotechnology Co., Ltd., catalog number CBP60084, adherent, culture medium (F12K Nutrient Mixture+10%FBS (GIBCO, Cat#10091-148) at 37°C, 5%CO2, and 95% humidity.
3D Cell Viability Assay: Cells in the logarithmic growth phase were harvested and counted using a platelet counter. Cell viability was assessed using the trypan blue exclusion method to ensure a viability of over 90%. The 3D cell culture medium was prepared by adding 1% MC (methylcellulose, Sigma, Cat#M0512) F-12K medium and 10% FBS. The cell concentration was adjusted to approximately 7407 cells/mL using the 3D medium, and the methylcellulose (MC) content was set to 0.65%. Then, 135 µL of cell suspension was added to each 96-well clear, flat-bottomed, black-walled plate (Greiner, Cat#655096). The cells in the 96-well plates were cultured overnight at 37°C with 5% CO2.
Drug preparation for IC50 assay: A 10-fold drug solution was prepared using culture medium. […] of the drug solution was added to each well of a 96-well plate seeded with cells to achieve a working concentration of up to 10 µM, with a 3× dilution, and 9 concentrations. 2 replicate wells for each drug concentration were set. The cells in the drug-treated 96-well plates were cultured at 37°C and 5% CO^2 for additional5 days, then CTG assay (CellTiter-Glo® Luminescent Cell Viability Assay (Promega, Cat#G7573)) were performed.
The cell plate was equilibrated to room temperature for 30 minutes and the CTG reagent was thawed. 75 µL of CTG solution was added to each well for detection, and the plate was shaken on an orbital shaker for 5 minutes to lyse the cells. The cell plate was placed at room temperature for 25 minutes to stabilize the cryo-luminescence signal and the cryo-luminescence value was read (EnVision® multi-plate reader, PerkinElmer#2105).
Data was analyzed using GraphPad Prism software. The dose-response-inhibition equation was used to fit the data to obtain the dose-response curve, and the IC50 value (nM) was calculated accordingly. [formula]

[3] = tested on: KRAS G12V mutant NCI-H727 cells; test: Proliferation inhibition of NCI-H727 cells, 3D CellTiter-Glo assay (Method B); type: cell-based, human; settings: Homo sapiens, NCI-H727, 120 h, Method B; 3D culture with 0.65% methylcellulose, 5 days, CTG; read-out: NCI-H727 IC50/nM
Method in brief: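 Cells grown in 3D medium (RPMI-1640, 10% FBS, 0.65% methylcellulose) overnight, then treated 5 days at 37 °C, 5% CO2 with 9 threefold dilutions from 10 µM top working concentration, duplicate wells. CellTiter-Glo luminescence read; IC50 (nM) fitted by dose-response-inhibition equation.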

`CN1CC[C@H](C(F)F)[C@](C)(COc2nc(N3CCOC[C@@](C)(O)C3)c3cc(C(F)(F)F)c(-c4cccc5sc(N)c(C#N)c45)c(F)c3n2)C1` (atropisomer, axis not shown) [Example 5A, (S)-2-amino-4-(2-(((3S,4S)-4-(difluoromethyl)-1,3-dimethylpiperidine-3-yl)methoxy)-8-fluoro-4-((S)-6-hydroxy-6-methyl-1,4-oxazol-4-yl)-6-(trifluoromethyl)quinazoline-7-yl)benzo[b]thiophene-3-carbonitrile] showed an IC50 [1] of 1.6 nM, an IC50 [2] of 16.5 nM and an IC50 [3] of under 1.5 nM.
With `[2H]C([2H])([2H])N1CC/C(=C\F)[C@](C)(COc2nc(N3CCCn4nc(C(=O)N(C)C)cc4C3)c3cc(C(F)(F)F)c(-c4c(F)ccc5sc(N)c(C#N)c45)c(F)c3n2)C1` (atropisomer, axis not shown) [Example 68A] the IC50 [1] was under 1.5 nM, the IC50 [2] was 41.8 nM and the IC50 [3] was 2.4 nM.
In the case of `CN1CC/C(=C\F)[C@](C)(COc2nc(N3CCCn4nc(C(=O)N(C)C)cc4C3)c3cc(C(F)(F)F)c(-c4c(F)ccc5sc(N)c(C#N)c45)c(F)c3n2)C1` (single isomer, unassigned) [Example 28A], the IC50 [1] was under 1.5 nM, the IC50 [2] was 31.2 nM and the IC50 [3] was 1.8 nM.
`CN1CC/C(=C\F)[C@](C)(COc2nc(N3CCCn4nc(C(=O)N(C)C)c(Cl)c4C3)c3cc(C(F)(F)F)c(-c4cccc5sc(N)c(C#N)c45)c(F)c3n2)C1` [Example 124] showed an IC50 [1] of under 1.5 nM, an IC50 [2] of 23.9 nM and an IC50 [3] of 2.2 nM.
For `[2H]C([2H])([2H])N1CC[C@H](C(F)F)[C@](C)(COc2nc(N3CCOC[C@@](C)(O)C3)c3cc(C(F)(F)F)c(-c4c(F)ccc5sc(N)c(C#N)c45)c(F)c3n2)C1` [Example 65A], the IC50 [1] was 1.5 nM and the IC50 [2] was 26.1 nM.
`[2H]C([2H])([2H])N1CC[C@H](C(F)F)[C@](C)(COc2nc(N3CCOC[C@@](C)(O)C3)c3cc(C(F)(F)F)c(-c4ccc(F)c5sc(N)c(C#N)c45)c(F)c3n2)C1` [Example 55] gave an IC50 [1] of 13.1 nM, an IC50 [2] of 40.7 nM and an IC50 [3] of 2.4 nM.
Compound `CN1CC/C(=C\F)[C@](C)(COc2nc(N3CCOC[C@@](C)(O)C3)c3cc(C(F)(F)F)c(-c4cccc5sc(N)c(C#N)c45)c(F)c3n2)C1` (atropisomer, axis not shown) [Example 6A, (S)-2-amino-4-(8-fluoro-2-(((S,E)-4-(fluoromethylene)-1,3-dimethylpiperidine-3-yl)methoxy)-4-((S)-6-hydroxy-6-methyl-1,4-oxazol-4-yl)-6-(trifluoromethyl)quinazoline-7-yl)benzo[b]thiophene-3-carbonitrile] has an IC50 [1] of 4.7 nM, an IC50 [2] of 35.1 nM and an IC50 [3] of 1.6 nM.
Compound `CN1CC/C(=C\F)[C@](C)(COc2nc(N3CCCn4nc(C(=O)N(C)C)cc4C3)c3cc(C(F)(F)F)c(-c4cccc5sc(N)c(C#N)c45)c(F)c3n2)C1` (single isomer, unassigned) [Example 8A] has an IC50 [1] of 1.5 nM, an IC50 [2] of 101 nM and an IC50 [3] of 4.4 nM.
Work on `CN1CC/C(=C\F)[C@](C)(COc2nc(N3CCCn4nc(C(=O)N(C)C)cc4C3)c3cc(/C=C\F)c(-c4cccc5sc(N)c(C#N)c45)c(F)c3n2)C1` [Example 112] yielded an IC50 [1] of 9.9 nM and an IC50 [3] of 20.2 nM.
Compound `CN1CC/C(=C\F)[C@](C)(COc2nc(N3CCCn4nc(C(=O)N(C)C)c(N)c4C3)c3cc(C(F)(F)F)c(-c4cccc5sc(N)c(C#N)c45)c(F)c3n2)C1` [Example 120] has an IC50 [1] of 10.3 nM and an IC50 [3] of 29.8 nM.
For `CCN1CC/C(=C\F)[C@](C)(COc2nc(N3Cc4cc(C(=O)N(C)C)nn4CC[C@@H]3C)c3cc(Cl)c(-c4ncc(F)c5sc(N)c(C#N)c45)c(F)c3n2)C1` (single isomer, unassigned) [Example 231A], the IC50 [1] was 2.5 nM and the IC50 [3] was 4.4 nM.
With `CNC(=O)c1cc2n(n1)CCCN(c1nc(OC[C@]3(C)CN(C)CC/C3=C\F)nc3c(F)c(-c4cccc5sc(N)c(C#N)c45)c(C(F)(F)F)cc13)C2` [Example 118] the IC50 [1] was 12.8 nM and the IC50 [3] was 35.5 nM.
`CN1CC/C(=C\F)[C@](C)(COc2nc(N3CCCn4nc(C(=O)N(C)C)cc4C3)c3cc(/C=C/F)c(-c4cccc5sc(N)c(C#N)c45)c(F)c3n2)C1` [Example 111] showed an IC50 [1] of 25.6 nM and an IC50 [3] of 54.7 nM.
`CN1CC/C(=C\F)[C@](C)(COc2nc(N3CCCN4C(=O)OCC4C3)c3cc(C(F)(F)F)c(-c4cccc5sc(N)c(C#N)c45)c(F)c3n2)C1` (stereo partly drawn) [Example 113] showed an IC50 [1] of 584 nM and an IC50 [3] of 168 nM.
`[2H]C([2H])([2H])N1CC[C@H](C(F)F)[C@](C)(COc2nc(N3CCCn4nc(C(=O)N(C)C)cc4C3)c3cc(C(F)(F)F)c(-c4c(F)ccc5sc(N)c(C#N)c45)c(F)c3n2)C1` [Example 67, 5-(7-(2-Amino-3-cyano-5-fluorobenzo[b]thiophene-4-yl)-2-(((3S,4S)-4-(difluoromethyl)-3-methyl-1-(methyl-d3)piperidine-3-yl)methoxy)-8-fluoro-6-(trifluoromethyl)quinazoline-4-yl)-N,N-dimethyl-5,6,7,8-tetrahydro-4H-pyrazolo[1,5-a][1,4]diazepine-2-formamide] gave an IC50 [1] of 1.75 nM and an IC50 [3] of 6.3 nM.
`[2H]C([2H])([2H])N1CC/C(=C\F)[C@](C)(COc2nc(N3Cc4c(Cl)c(C(=O)N(C)C)nn4CC[C@@H]3C)c3cc(CC)c(-c4c(F)ccc5sc(N)c(C#N)c45)c(F)c3n2)C1` (single isomer, unassigned) [Example 182A] showed an IC50 [1] of 2 nM and an IC50 [3] of under 1.5 nM.
`CN1CC/C(=C\F)[C@](C)(COc2nc(N3CCCn4nc(C(=O)N(C)C)c(C#N)c4C3)c3cc(C(F)(F)F)c(-c4cccc5sc(N)c(C#N)c45)c(F)c3n2)C1` (single isomer, unassigned) [Example 119B] gave an IC50 [1] of under 1.5 nM and an IC50 [3] of 6.9 nM.
`CCN1CC/C(=C\F)[C@](C)(COc2nc(N3CCCn4nc(C(=O)N(C)C)c(Cl)c4C3)c3cc(C(F)(F)F)c(-c4ncc(F)c5sc(N)c(C#N)c45)c(F)c3n2)C1` [Example 253] gave an IC50 [1] of 2.5 nM and an IC50 [3] of 8.7 nM.
With `CN1CC/C(=C\F)[C@](C)(COc2nc(N3CCCn4nc(C(=O)N(C)C)cc4C3)c3cc(C(F)F)c(-c4cccc5sc(N)c(C#N)c45)c(F)c3n2)C1` [Example 100] the IC50 [1] was 20 nM and the IC50 [3] was 47.7 nM.
With `CCN1CCC(=CF)C(C)(COc2nc(N3Cc4cc(C(=O)N(C)CCF)nn4CCC3C)c3cc(Cl)c(-c4c(F)ccc5sc(N)c(C#N)c45)c(F)c3n2)C1` (stereo not drawn) [Example 264A] the IC50 [1] was 2.3 nM and the IC50 [3] was 2.8 nM.
With `[2H]C([2H])([2H])N1CC[C@H](C(F)F)[C@](C)(COc2nc(N3CCCn4nc(C(=O)N(C)C)cc4C3)c3cc([N+](=O)[O-])c(-c4cccc5sc(N)c(C#N)c45)c(F)c3n2)C1` [Example 95, 5-(7-(2-Amino-3-cyanobenzo[b]thiophene-4-yl)-2-(((3S,4S)-4-(difluoromethyl)-3-methyl-1-(methyl-d3)piperidine-3-yl)methoxy)-8-fluoro-6-nitroquinazoline-4-yl)-N,N-dimethyl-5,6,7,8-tetrahydro-4H-pyrazolo[1,5-a][1,4]diazepine-2-formamide] the IC50 [1] was 10.5 nM and the IC50 [3] was 36.1 nM.
`CN1CC[C@H](C(F)F)[C@](C)(COc2nc(N3CCC[C@@](C)(O)C3)c3cc(C(F)(F)F)c(-c4cccc5sc(N)c(C#N)c45)c(F)c3n2)C1` (atropisomer, axis not shown) [Example 3A, (R)-2-amino-4-(2-(((3S,4S)-4-(difluoromethyl)-1,3-dimethylpiperidine-3-yl)methoxy)-8-fluoro-4-((R)-3-hydroxy-3-methylpiperidine-1-yl)-6-(trifluoromethyl)quinazoline-7-yl)benzo[b]thiophene-3-carbonitrile] was tested, and the IC50 [1] was 112 nM and the IC50 [3] was 40.7 nM.
